{"source": "patent US20210330661A1", "about": "(China Medical University, priority 2020, published 2021)", "key": {"[1]": {"target": "T1, SARS-CoV-2 M^pro (Severe acute respiratory syndrome coronavirus 2, UniProt P0DTD1)", "test": "FRET assay of SARS-CoV-2 Mpro activity with boceprevir or narlaprevir", "type": "biochemical", "conditions": "50 μM drug; 1 μM Mpro; FIG. 6; read-out: inhibitory effect on SARS-CoV-2 Mpro activity"}, "[2]": {"target": "T1, SARS-CoV-2 M^pro", "type": "binding", "conditions": "various concentrations; FIG. 2A, 2B"}, "[3]": {"target": "T1, SARS-CoV-2 M^pro", "test": "Limited proteolysis assay by trypsin digestion", "conditions": "drug 0, 30, 60, 90 μM; FIG. 5A, 5B", "protocol": "To further probe the conformational changes of SARS-CoV-2 M^pro, the limited proteolysis assay by trypsin digestion is performed. […] Proteolysis is performed by mixing SARS-CoV-2 M^pro (0.8 mg/ml) with trypsin at a protease-to-protein ratio of 1:10 (w/w) in a reaction buffer (25 mM Tris at pH 8.0, 150 mM NaCl) at 37° C. for 30 minutes. The reaction is stopped by adding SDS sample loading buffer and boiling at 95° C. for 10 minutes and subjected to SDS-PAGE (4%-20%)."}, "[4]": {"target": "T1, SARS-CoV-2 M^pro", "test": "FRET assay of SARS-CoV-2 Mpro activity with tafenoquine or hydroxychloroquine", "type": "biochemical", "conditions": "FIG. 1"}, "[5]": {"target": "T1, SARS-CoV-2 M^pro", "test": "Soluble fraction / stability of Mpro in presence of drug", "conditions": "concentration up to 500 μM; FIG. 4"}, "[6]": {"test_system": "SARS-CoV-2 (strain NTU02) in Vero E6 cells", "type": "cell-based", "conditions": "pre-treated cells, various concentrations; compared to DMSO control; 3-day post infection; FIG. 14"}, "[7]": {"test_system": "SARS-CoV-2 (strain NTU02) in Vero E6 cells", "type": "cell-based", "conditions": "pre-treatment, 48 hours, MOI 0.0003, FIG. 13"}, "[8]": {"test_system": "SARS-CoV-2 (strain NTU02) in Vero E6 cells", "test": "microbe, parasite or virus in culture", "type": "cell-based"}, "[9]": {"test_system": "SARS-CoV-2 (strain NTU02) in Vero E6 cells", "type": "cell-based", "conditions": "5 μM; compared with DMSO; 3-day post infection; FIG. 12"}}, "note": "Read-outs that look alike come from different tables or passages of the source.", "data": [{"molecule": "CC(C)(C)NC(=O)N[C@H](C(=O)N1C[C@H]2[C@@H]([C@H]1C(=O)NC(CC1CCC1)C(=O)C(N)=O)C2(C)C)C(C)(C)C", "note": "(some centres unmarked) [boceprevir]", "values": [{"measurement": "inhibition at 50 µM", "setting": "[1]", "result": "76.5 ± 4.8", "unit": "%"}]}, {"molecule": "CCN(CCO)CCCC(C)Nc1ccnc2cc(Cl)ccc12", "note": "(centres unmarked) [hydroxychloroquine]", "values": [{"measurement": "shift in melting temperature / thermal stability of Mpro", "setting": "[2]", "result": "no influence on the thermal stability"}, {"measurement": "cleavage of Mpro by trypsin", "setting": "[3]", "result": "no concentrations of hydroxychloroquine tested reduce the cleavage"}, {"measurement": "inhibitory effect on SARS-CoV-2 Mpro", "setting": "[4]; various concentrations", "result": "does not demonstrate any significant inhibitory effects"}, {"measurement": "stability of Mpro", "setting": "[5]", "result": "does not influence the stability"}]}, {"molecule": "CCCC[C@H](NC(=O)[C@@H]1[C@@H]2[C@H](CN1C(=O)[C@@H](NC(=O)NC1(CS(=O)(=O)C(C)(C)C)CCCCC1)C(C)(C)C)C2(C)C)C(=O)C(=O)NC1CC1", "note": "[narlaprevir]", "values": [{"measurement": "cytopathic effect induced by SARS-CoV-2 infection", "setting": "[6]", "result": "significantly lesser"}, {"measurement": "inhibition rate against viral RNA production", "setting": "[7]; 40 μM narlaprevir", "result": "approximately 76.4%"}, {"measurement": "inhibition at 50 µM", "setting": "[1]", "result": "64.1 ± 2.5", "unit": "%"}]}, {"molecule": "CCC(CC)COC(=O)[C@H](C)N[P@](=O)(OC[C@H]1O[C@@](C#N)(c2ccc3c(N)ncnn23)[C@H](O)[C@@H]1O)Oc1ccccc1", "note": "[remdesivir]", "values": [{"measurement": "inhibition rate against viral RNA production", "setting": "[7]; 1 μM remdesivir", "result": "~26.3", "unit": "%"}]}, {"molecule": "COc1cc(C)c2c(Oc3cccc(C(F)(F)F)c3)c(OC)cc(NC(C)CCCN)c2n1", "note": "(centres unmarked) [tafenoquine]", "values": [{"measurement": "inhibition at 90 µM", "setting": "[4]; 90 μM, 4 μM Mpro, read-out: inhibition against SARS-CoV-2 Mpro", "result": "~90", "unit": "%"}, {"measurement": "viral RNA versus DMSO-treated group", "setting": "[8]; 2.5 μM, day not given, FIG. 10", "result": "no significant difference"}, {"measurement": "yield of viral RNA in cell supernatant", "setting": "[8]; Day 1 to Day 2 after infection, FIG. 10", "result": "significantly represses"}, {"measurement": "EC50", "setting": "[8]; Severe acute respiratory syndrome coronavirus 2, Vero C1008, 48 h, read-out: half maximal effective concentration (EC50)", "result": "~2500", "unit": "nM"}, {"measurement": "SARS-CoV-2-induced cytopathic effect", "setting": "[9]", "result": "significant decrease"}]}]}
